The values below come from US20140194477A1, “KINASE PROTEIN BINDING INHIBITORS” (Roswell Park Cancer Institute, priority 2011, published 2014).

For data set [1], the system named is CD-1 mice. The data set can be described thus: 7-day multiple-dose MTD toxicologic study of Y15, oral gavage, CD-1 mice. The data set is classed as in vivo.
Protocol: (§5) • A 7-day, multiple-dose maximum tolerated dose toxicologic study of the chemical 1,2,4,5-Benzenetetramine tetrahydrochloride (Y15) was performed in CD-1 mice.
(§6) • The chemical 1,2,4,5-Benzenetetramine tetrahydrochloride (Y15) was the test article. Y-15 is a chemical grade compound available through Sigma-Aldrich, The test article was prepared in phosphate buffered saline (PBS). The test article was prepared by the sponsor and delivered to the study director prior to the study. The test article was stored in the freezer (0° C.), protected from light.
(§7) • The CD-1 [Hsd:ICR(CD-1)] albino mouse was used. […] Mice were obtained from Harlan (Frederick, Md.). • Mice were acclimated for a minimum of 2 days prior to testing. 20 male and 20 female mice, nulliparous and non-pregnant, were used. Normal weight gain, appearance and behavior were factors used to select healthy mice for testing. Only naive animals were used. Mice weighed 22-35 grams (males) and 20-27 grams (females), and were in good health at the start of the study. Mice were randomly assigned to 4 experimental groups (controls, low-dose, medium-dose, and high-dose) consisting of 5 males and 5 females. Mice were identified via cage cards, tail markings, and ear punch. Mouse identification codes contained information regarding experimental group (C=control, L=low-dose, M=medium-dose, H=high-dose), sex (M=male, F=female), and animal number (1-5). […] Tap water acidified to a pH of 2.5-3.5 was provided in autoclaved water bottles ad libitum. […] Environmental conditions in the animal housing room were maintained at an ambient temperature of 70±3°, relative humidity of 30-70%, and a 12:12 light-dark cycle. Animal housing rooms were ventilated with 100% fresh, HEPA filtered air with 10-15 air changes per hour.
(§8) A 7-day multiple-dose MTD toxicology study was performed.
(§9) The test article Y-15 was prepared in PBS and administered orally (PO) via orogastric gavage as a single daily dose on days 0-6 in the morning. The test article (Y-15) was diluted with the control article (PBS) so as not to exceed a volume of 100 μL. The test article was stored in the freezer (0° C.) and allowed to thaw and come to room temperature prior to administration. Mice were randomly allocated into 4 groups (controls, low-dose, medium-dose, and high-dose) consisting of 5 males and 5 females. Dosages were calculated on a “per mouse” basis, not on a mg/kg basis. […] Mice in the high-dose group received the equivalent of a 300 mg/kg dose for a 20 g mouse (6 mg). Mice in the control group received 100 μL of the control article (PBS). Groups received the following doses, drug concentrations, and gavage volumes, as outlined in Table 2:
Experiment in data set [2]: as above
Protocol: as §5, §6, §7, §8, §9
The data set is classed as in vivo. The following applies: both sexes, CD-1, mouse, in vivo, oral gavage in mice, daily for 7 days.

For data set [3], the system named is CD-1 mice. Kind of data set: 7-day single-dose MTD toxicologic study of Y15, oral gavage, CD-1 mice. In kind it is in vivo. The method, then: (§1) • A 7-day, single-dose maximum tolerated dose toxicologic study of the chemical 1,2,4,5-Benzenetetramine tetrahydrochloride (Y-15) was performed in CD-1 mice.
(§2) • The chemical 1,2,4,5-Benzenetetramine tetrahydrochloride (Y-15) was the test article. Y-15 is a chemical grade compound available through Sigma-Aldrich. The test article was prepared in phosphate buffered saline (PBS). The test article was prepared by the sponsor and delivered to the study director prior to the study. The test article was stored in the freezer (0° C.), protected from light.
(§3) • The CD-1 [Hsd:ICR(CD-1)] albino mouse was used. The CD-1 mouse is conventionally used in toxicity tests to provide information on which human hazards can be judged, and is one of the choices of species preferred by regulatory agencies. Mice were obtained from Harlan (Frederick, Md.). • Mice were acclimated for a minimum of 2 days prior to testing. […] mice, nulliparous and non-pregnant, were used. Normal weight gain, appearance and behavior were factors used to select healthy mice for testing. Only naive animals were used. Mice were 4-7 weeks old, weighed 22-34 grams (males) and 19-24 grams (females), and were in good health at the start of the study. Mice were 5-8 weeks old, weighed 23-36 grams (males) and 20-25 grams (females) at the conclusion of the study. • Mice were randomly assigned to 8 experimental groups consisting of 3 males and 3 females which received increasing doses of the chemical Y-15. Mice were identified via cage cards, tail markings, and ear punch. Mouse identification codes contained information regarding experimental group (A=15 mg/kg dose group, B=30 mg/kg dose group, C=60 mg/kg dose group, D=90 mg/kg dose group, E=120 mg/kg dose group, F=150 mg/kg dose group, G=200 mg/kg dose group, and H=250 mg/kg dose group), sex (M=male, F=female), and animal number (1-3). Mice were fed autoclaved Harlan-Teklad sterilizable 7012 mouse/rat diet ad libitum. The feed is routinely analyzed by the manufacturer for nutritional components and environmental contaminants. Tap water acidified to a pH of 2.5-3.5 was provided in autoclaved water bottles ad libitum. Municipal water supply is analyzed by the Bureau Veritas Consumer Product Services of Buffalo, NY on an annual basis. […]
(§4) • The test article 1,2,4,5-Benzenetetramine tetrahydrochloride (Y15) was prepared in PBS and administered orally (PO) via orogastric gavage as a single dose on day 0 in the morning. […] Dosages were calculated on a “per mouse” basis, not on a mg/kg basis. […]

Experiment in data set [4]: as above
The note with it: both sexes, CD-1, mouse, in vivo, po. In kind it is in vivo. The method, then:
as §1, §2, §3, §4

Another data set deals with FAK (Homo sapiens, UniProt Q05397). Kind of data set: FAK Y397 phosphorylation. The data set is classed as biochemical. The note with it: in vitro.
In another data set the test system is tumor. The data set can be described thus: Tumor growth in vivo.
Another data set deals with cancer cell. Kind of data set: Cancer cell viability in vitro. The data set is classed as cell-based.

FAK, sequence (Q05397 whole entry): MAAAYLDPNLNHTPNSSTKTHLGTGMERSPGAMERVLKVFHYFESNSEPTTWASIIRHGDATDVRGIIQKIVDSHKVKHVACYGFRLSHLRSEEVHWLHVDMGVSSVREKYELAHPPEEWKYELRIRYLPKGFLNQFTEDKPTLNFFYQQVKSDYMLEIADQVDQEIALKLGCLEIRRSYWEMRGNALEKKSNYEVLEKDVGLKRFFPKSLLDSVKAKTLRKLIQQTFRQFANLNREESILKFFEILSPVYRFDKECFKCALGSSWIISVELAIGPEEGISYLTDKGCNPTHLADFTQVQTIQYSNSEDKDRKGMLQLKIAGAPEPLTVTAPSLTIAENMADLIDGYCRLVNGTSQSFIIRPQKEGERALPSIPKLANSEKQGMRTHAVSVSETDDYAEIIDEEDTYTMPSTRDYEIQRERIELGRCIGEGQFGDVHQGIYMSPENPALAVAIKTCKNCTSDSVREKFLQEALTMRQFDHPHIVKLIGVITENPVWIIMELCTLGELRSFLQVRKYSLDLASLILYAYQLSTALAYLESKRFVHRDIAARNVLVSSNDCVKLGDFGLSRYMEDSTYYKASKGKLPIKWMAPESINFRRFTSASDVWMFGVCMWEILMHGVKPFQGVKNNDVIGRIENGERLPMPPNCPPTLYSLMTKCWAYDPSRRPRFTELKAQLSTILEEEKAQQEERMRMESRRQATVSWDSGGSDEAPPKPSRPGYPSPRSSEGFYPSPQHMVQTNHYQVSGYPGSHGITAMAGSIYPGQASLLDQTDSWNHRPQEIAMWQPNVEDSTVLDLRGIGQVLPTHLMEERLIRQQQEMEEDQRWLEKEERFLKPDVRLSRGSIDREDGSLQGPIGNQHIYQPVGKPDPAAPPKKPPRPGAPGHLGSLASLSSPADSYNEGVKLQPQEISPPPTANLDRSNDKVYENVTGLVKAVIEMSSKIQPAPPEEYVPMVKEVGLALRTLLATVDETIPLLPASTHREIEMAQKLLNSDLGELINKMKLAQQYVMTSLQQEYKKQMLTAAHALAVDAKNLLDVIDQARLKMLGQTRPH

Turning to `Cl.Cl.Cl.Cl.Nc1cc(N)c(N)cc1N` [Y15, 1,2,4,5-benzenetetraamine tetrahydrochloride], the “maximal tolerated dose (summary statement)” value was 200 mg/kg with CD-1 mice [1] (delivery 5 days/week, duration 7 days) and 250 mg/kg with CD-1 mice [3] (delivery once /week, duration 7 days). Further, the “toxicity findings, medium-dose group” value in the data set with CD-1 mice [1] (oral gavage daily days 0-6, 100 mg/kg) is reported as “no mortality, clinical signs of toxicity, or decrement in mean body weight”. For the same compound, the “toxicity findings, high-dose group” value in the data set on CD-1 mice [1] (oral gavage daily days 0-6, 200 mg/kg) was “weight loss, severe clinical signs of abdominal distention, and mortality due to gastrointestinal dilatation”. Besides, the MTD at 7 days is no less than 100 mg/kg in data set [2] and 200 mg/kg in data set [4]. Further, the NOAEL (commonly the highest dose or exposure tested at which no adverse effect was seen) at 7 days in data set [2] (read-out: no observable adverse effects level (NOAEL)) came to 100 mg/kg. In addition, the “toxicity findings, other dose groups” value in the data set with CD-1 mice [3] (single oral gavage dose, 15-200 mg/kg groups) was “no mortality, adverse clinical signs, or decrement in body weight greater than 10%”. Besides, the “mortality, highest dose group” value in the data set on CD-1 mice [3] (single oral gavage dose, group H 250 mg/kg) is “mortality was seen”. Moreover, the “Y397-phosphorylation of FAK in vitro” value at FAK was “directly and specifically decreases”. The “tumor growth in vivo” value in the data set on tumor was “blocks tumor growth in vivo”. Besides, the “cancer cell viability in vitro” value in the data set on cancer cell was “inhibits cancer cell viability in vitro”.
